Source: US9241943B2, “Oxathiazine derivatives as antibacterial and anticancer agents” (GEISTLICH PHARMA AG, priority 2012, dated 2016)
Values after ≈ are worked out from the molar mass of the structure shown.

Columns and labels:
[1] = test system: human glioma cell line LN-229; assay: Cytotoxicity assay (crystal violet) in LN-229 cells; format: cell-based
[2] = test system: human glioma cell line LN-229; assay: as above; format: cell-based; conditions: 24 h, high values correspond to high cell viability
Description: Cell lines: The human glioma cell line LN-229 was used as described previously (Rodak et al. 2005) as well as the human colon adenocarcinoma cell line SW480.
Cytotoxicity assay: Dissociated LN-229 cells were seeded into 96-well plates at a density of 10^4 cells per well in 100 μl of culture medium. Approximately 24 h later, when the cells had reached 70-80% confluency, the medium was changed and treatment with compound #2250 (4.0-1000 μg/ml), taurolidine (4.0-1000 μg/ml) or standard medium was started. Triplicate cultures were prepared for each sample. After 24 h of incubation at […], the remaining adherent viable cells were stained using crystal violet as described (Rodack et al. 2005). Cell viability was determined by measuring the absorbancy at 540 nm. The results are expressed as killing rate given by the difference between 100% of cells and percentage of cells surviving. EC50 values correspond to the concentration inducing 50% cell death.

[3] = test system: cancers identified herein; assay: Administration to patients having cancers (Example 5); format: in vivo, human; conditions: Example 5, written in present tense
[4] = test system: human glioblastoma bulk cells; conditions: cited from earlier work
[5] = test system: murine SMA560 glioma cancer stem cells (CSC); assay: Cytotoxicity assay in murine SMA560 glioma cancer stem cells; format: cell-based, mouse; conditions: for sensitivity of CSCs relative to corresponding glioma bulk cells, based on EC50: murine SMA 560 CSCs vs bulk cells
Description: (§1) Tissue samples from high grade gliomas WHO grade IV from newly diagnosed patients (medium age of 54±10 years) were minced mechanically, digested enzymatically and the dissociated cells were filtered. The isolated tumor cells were cultured as bulk cells. Cancer Stem Cells (CSCs) were isolated by the formation of neurospheres under neurosphere conditions (using neurobasal medium) from the murine SMA 560 glioma cell line or from freshly isolated human glioblastoma cells.
(§2) Bulk glioma tumor cells were cultured and incubated with taurolidine or taurultam for 24h or 48h as described previously (Rodak et al., J. Neurosurg. 102, 1055-1068, 2005). CSCs were cultured for 7 days and subsequently exposed to taurolidine, taurultam or temozolamide for 24 hours. The number of remaining adherent cells were stained (crystal violet or Alamar Blue) and quantified by absorbance measurements (540 nm). Cell survival was expressed as the percentage of cells surviving relative to the number of cells surviving in untreated control cultures. The results are given as % killing rate or EC50 as the dose required for half-maximal cytotoxicity.
Mouse CSCs were generated from the SMA560 glioma cell line and cultured for 7 days. The CSCs were treated with the same concentration of taurolidine and taurultam as above and cytotoxicity was determined after 24 hours.

[6] = test system: murine SMA 560 bulk glioma cells; assay: Cytotoxicity assay in murine SMA 560 bulk glioma cells; format: cell-based, mouse
Description: as §1
as §2, with “The results are given as % killing rate or EC50 as the dose required for half-maximal cytotoxicity.” left out
The mouse SMA560 glioma cell line was used to provide tumor bulk cells and CSCs. Following incubation of SMA560 bulk cells with various concentrations of taurolidine and taurultam (6.25, 12.5, 25, 50, 100, 200 μg/ml), cytotoxicity was determined after 24 h and 48 h of incubation.

[7] = measured in patients; cited from earlier work
[8] = test system: cancer stem cells (CSC) derived from four glioblastoma patients; format: cell-based, human
Description: as §1, §2
CSCs were isolated from glioblastoma tissue resected from four patients. The same range of concentrations of taurolidine and taurultam was applied as above and the cytotoxicity was measured after 24 hours of incubation with drug. […]

O=S1(=O)CCOCN1 [Compound 2250, Tetrahydro1,4,5-oxathiazin-4-dioxid]
effect on tumor cell morphology [1]: causes blebbing of tumor cells | OD (absorbance at 540 nm) ([2]; 4 μg/ml): 1.477 | OD (absorbance at 540 nm) ([2]; 8 μg/ml): 1.527 | OD (absorbance at 540 nm) ([2]; 15.5 μg/ml): 1.482 | OD (absorbance at 540 nm) ([2]; 31 μg/ml): 1.482 | OD (absorbance at 540 nm) ([2]; 62.5 μg/ml): 0.372 | OD (absorbance at 540 nm) ([2]; 125 μg/ml): 0.199 | OD (absorbance at 540 nm) ([2]; 250 μg/ml): 0.120 | OD (absorbance at 540 nm) ([2]; 500 μg/ml): 0.141 | OD (absorbance at 540 nm) ([2]; 1000 μg/ml): 0.189 | efficacy in treating cancers in patients [3]: effective in treating such cancers

O=S1(=O)CCN(CN2CCS(=O)(=O)OC2)CN1 [B2]
efficacy in treating cancers in patients [3]: effective in treating such cancers

O=S1(=O)CCOCO1 [A3]
efficacy in treating cancers in patients [3]: effective in treating such cancers

O=S1(=O)CCN(CN2CCS(=O)(=O)NC2)CN1 [Taurolidine, taurolidine]
EC50 cytotoxicity [4]: ~50 µg/mL (≈ 176 µM) | sensitivity of CSCs relative to corresponding glioma bulk cells, based on EC50 [5]: about 3 fold | OD (absorbance at 540 nm) ([2]; 4 μg/ml): 1.530 | OD (absorbance at 540 nm) ([2]; 8 μg/ml): 1.478 | OD (absorbance at 540 nm) ([2]; 15.5 μg/ml): 1.434 | OD (absorbance at 540 nm) ([2]; 31 μg/ml): 1.132 | OD (absorbance at 540 nm) ([2]; 62.5 μg/ml): 0.317 | OD (absorbance at 540 nm) ([2]; 125 μg/ml): 0.305 | OD (absorbance at 540 nm) ([2]; 250 μg/ml): 0.165 | OD (absorbance at 540 nm) ([2]; 500 μg/ml): 0.098 | OD (absorbance at 540 nm) ([2]; 1000 μg/ml): 0.109 | EC50 ([6]; Mus musculus, SMA 560 bulk cells, no major difference between 24 h and 48 h): 34.6 µg/mL (≈ 122 µM)

O=S1(=O)CCN(CN2COCCS2(=O)=O)CN1 [B1]
efficacy in treating cancers in patients [3]: effective in treating such cancers

O=S1(=O)CCNCO1 [A1]
efficacy in treating cancers in patients [3]: effective in treating such cancers

O=S1(=O)CCOCN1CN1COCCS1(=O)=O [Compound 2245]
efficacy in treating cancers in patients [3]: effective in treating such cancers

Cn1nnc2c(C(N)=O)ncn2c1=O [Temozolamide, temozolamide]
peak plasma levels [7]: 13.7 µg/mL | Cytotoxicity EC50 24 h, Mean ± SD [8]: 68.5 ± 26 µg/mL

O=S1(=O)CCN(CN2CCS(=O)(=O)OC2)CO1 [B3]
efficacy in treating cancers in patients [3]: effective in treating such cancers

O=S1(=O)CCNCN1 [Taurultam, taurultam]
EC50 cytotoxicity [4]: ~50 µg/mL (≈ 367 µM) | EC50 cytotoxicity [5]: 10 µg/mL (≈ 73.4 µM) | sensitivity of CSCs relative to corresponding glioma bulk cells, based on EC50 [5]: ~2 fold | EC50 cytotoxicity [6]: 19.3 µg/mL (≈ 142 µM)

CN1COCCS1(=O)=O [Compound 2255]
efficacy in treating cancers in patients [3]: effective in treating such cancers
